We go through seven molecules from US7855200B2, “Method for treatment of gastric ulcers and ulcers induced by aspirin” (Council of Scientific and Industrial Research, priority 2006, dated 2010).

Assay type in all cases: in vivo, albino rats
In assay [1] the test system is acetyl salicylic acid induced gastric lesions. Briefly: Acetyl salicylic acid (aspirin) induced gastric ulcer. The arrangement: Ulcer index Mean(SE): scale not given here. Particulars: rats, 25 mg/kg per orally daily for five days, aspirin 200 mg/kg; for inhibition at 25 mg/kg: Rattus norvegicus, po, 120 h. How it is done: Stress induced gastric ulceration The commercially available drug ranitidine (sigma), Omeprazole (sigma) and sucralfate (Merck) were used as reference standard in experimental models. The Tween-80 (SD fine chemicals) was used as vehicle for the administration of the drug, which is used as control. Antiulcer activity of the compounds under taken was studied. The animals were divided into 20 groups of 6 animals each. Group 1 received the vehicle Tween 80 (1%, 1 ml) which served as the control. Group 2 received ranitidine at a dose of 50-mg/kg body weight, which served as standard for comparison. Group 3 to 20 at a dose of 25 mg/kg body weight. Rats were administered per orally with a daily dose of the compounds and the drug ranitidine for a period of five days and then fasted for 24 hours. The […] acetyl salicylic acid (aspirin) at a dose of 200 mg/kg body weight was administered as a suspension in tween-80 (1%), 30 min after the drug administration each day. All drugs were administered orally on the 6th day after the last administration of the drugs and the ulcer inducing agent aspirin, the rats were killed by cervical dislocation and their stomach were opened along the greater curvature and washed with luke warm saline and examined under a dissecting microscope. The ulcer index was calculated for each stomach. […] The antiulcer activity of the compounds was studied. The animals were divided into 19 groups of 6 animals each. Group 1 received the vehicle Tween 80 (1%, 1 ml) which served as the control. Group 2 received ranitidine at a dose of 50-mg/kg-body weight, which served as standard for comparison. […] Rats were administered per orally with a daily dose of the compounds and the drug ranitidine to respective groups for a period of five days and then fasted for 24 hours. The […] acetyl salicylic acid (aspirin) at a dose of 200 mg/kg body weight was administered as a suspension in tween-80 (1%), 30 min after the drug administration each day. All drugs were administered orally on ht […] day after the last administration of the drugs and the ulcer inducing agent aspirin, the rats were killed by cervical dislocation and their stomach were opened along the greater curvature and washed with luke warm saline and examined under a dissecting microscope.

The subject of assay [2] is gastric ulceration in cold restraint rats. Briefly: Cold restraint (stress) induced ulcers. Particulars: for inhibition at 25 mg/kg: po; for inhibition at 25 mg/kg / Ulcer index Mean(SE): rats, 4° C. for 2 hours. Also on record: Ulcer index Mean(SE): scale not given here.
From the text: (§1) The compounds taken under study for antigastric ulcer screening by four different models were selected using experimental albino rats: • 1. Aspirin induced gastric ulceration • 2. Pylorus ligated gastric ulceration • 3. Ethanol induced gastric ulceration • 4. Stress induced gastric ulceration
(§2) The commercially available drug ranitidine (sigma), Omeprazole (sigma) and sucralfate (Merck) were used as reference standard in experimental models. The Tween-80 (SD fine chemicals) was used as vehicle for the administration of the drug, which is used as control.
(§3) The antiulcer activity of the compounds was studied. The animals were divided into 21 groups of 7 animals each. Group 1 received the vehicle Tween 80 (1%, 1 ml) which served as the control. Group 2 received ranitidine at a dose of 50-mg/kg body weight, which served as standard for comparison. Group 3 to 21 at a dose of 25 mg/kg body weight. Animals were deprived of food 48 hours before the experiment. The water was allowed for free access. Rats were administered per orally with compounds and the drug ranitidine. The water was removed 1 hour before restraint and exposed to a temperature of 4° C. for 2 hours. Two hours after stress, the animals were sacrificed. The stressed animals were opened along the greater curvature and the severity of gastric ulcer was assessed in terms of mean ulcer index. 2.
as §3, with “8” for “21”, “6” for “7”, “50, 25, 15, 10 and 5” for “25”, “weight respectively.” for “weight.”, “index.” for “index. 2.”

Assay [3] relates to ethanol induced gastric ulcers. The assay can be described thus: Ethanol induced ulcers. Particulars: rats, ethanol challenge; for Acidity Total mEg / Gastric content / pH: 4 hours after pylorus ligation. As to the method: Stress induced gastric ulceration The commercially available drug ranitidine (sigma), Omeprazole (sigma) and sucralfate (Merck) were used as reference standard in experimental models. The Tween-80 (SD fine chemicals) was used as vehicle for the administration of the drug, which is used as control. The animals were divided into 22 groups of 6 animals each. Animals were deprived of food for 48 hours but had free access to water. Group 1 received the vehicle Tween 80 (1%, 1 ml) which served as the control. Group 2 received ranitidine at a dose of 50-mg/kg-body weight, which served as standard for comparison. Group 3 to received Omeprazole at a dose of 30-mg/kg body weight, which served as standard for comparison. Group 4 received sucralfate at a dose of 400-mg/kg body weight, which served as standard for comparison. Group 5 to 22 received at a dose of 25 mg/kg body weight. Lesions were induced 1 hour after ethanol challenge animals. The stomach was ligated at the pylorus under ether anesthesia. 4 hours after pylorus ligation, the animals were sacrificed and the contents drained and centrifuges at 5000 rpm for 10 minutes. Aliquots of supernatant were used for determination of total acid by titrating with 0.01N NaOH using topfers reagent and phenolphthalein indicators. […] The animals were divided into 9 groups of 6 animals each. Animals were deprived of food for 48 hours but had free access to water. Group 1 received the vehicle Tween 80 (1%, 1 ml) which served as the control. Group 2 received ranitidine at a dose of 50-mg/kg-body weight, which served as standard for comparison. Group 3 to received Omeprazole at a dose of 30-mg/kg body weight, which served as standard for comparison. Group 4 received sucralfate at a dose of 400-mg/kg body weight, which served as standard for comparison. […] Lesions were induced 1 hour after ethanol challenge animals. The stomach was ligated at the pylorus under ether anesthesia. 4 hours after pylorus ligation, the animals were sacrificed and the contents drained and centrifuges at 5000 rpm for 10 minutes. Aliquots of supernatant were used for determination of total acid by titrating with 0.01N NaOH using topfers reagent and phenolphthalein indicators.

Assay [4] concerns Pylorus ligated rats. The assay can be described thus: Pylorus ligated ulcers. Particulars: 25 mg/kg, 4 hours after pylorus ligation; for inhibition at 25 mg/kg: Rattus norvegicus.
From the text: as §1, §2
The animals were divided into 19 groups of 6 animals each. Animals were deprived of food for 48 hours but had free access to water. Group 1 received the vehicle Tween 80 (1%, 1 ml) which served as the control. Group 2 received ranitidine at a dose of 50-mg/kg-body weight, which served as standard for comparison. […] After one hour of administration of drug the stomach was ligated at the pylorus under ether anesthesia. 4 hours after pylorus ligation, the animals were sacrificed and the contents drained and centrifuges at 5000 rpm for 10 minutes. Aliquots of supernatant were used for determination of total acid by titrating with 0.01N NaOH using topfers reagent and phenolphthalein indicators. 4.
The animals were divided into 7 groups of 6 animals each. Animals were deprived of food for 48 hours but had free access to water. Group 1 received the vehicle Tween 80 (1%, 1 ml) which served as the control. Group 2 received ranitidine at a dose of 50-mg/kg-body weight, which served as standard for comparison. Group 3 to 7 received at a dose of 50, 25, 15, 10 and 5 mg/kg body weight respectively. After one hour of administration of drug the stomach was ligated at the pylorus under ether anesthesia. 4 hours after pylorus ligation, the animals were sacrificed and the contents drained and centrifuges at 5000 rpm for 10 minutes. Aliquots of supernatant were used for determination of total acid by titrating with 0.01N NaOH using topfers reagent and phenolphthalein indicators.

The mark [5] stands for this setting: Rattus norvegicus, 25 mg/kg per orally.

Where “and” joins values, the source holds several entries; their conditions need not be identical. Identical values can stand only once.

By inhibition is commonly meant the share of the control response that was lost under treatment. `O=c1cc(-c2ccccc2)oc2cc(O)c(O)c(O)c12` [Baicalein, 5,6,7-trihydroxy-2-phenyl-chromen-4-one]: the inhibition at 25 mg/kg in assay [1] is 9.51%; in assay [2] (setting [5]), 3.52%; in assay [3] (Rattus norvegicus, 25 mg/kg), 20%; in assay [4] it was 18.9%. Also, the “Ulcer index Mean(SE)” value in assay [1] is on record as 40.83; in assay [2] (25 mg/kg per orally), 29.28; in assay [3] (25 mg/kg), 43.33 (±3.33); in assay [4], 40.66 (±5.50). For the same molecule, the entries for the “Acidity Total mEg” value in assay [3] (25 mg/kg) and in assay [4] were 45.21 (±3.10) mEg and 49.21 (±2.20) m Eg, respectively. The Gastric content is given as 3.5 (±0.20) in assay [3] (25 mg/kg) and 2.00 (±0.22) in assay [4]. For the same molecule, the pH is 3.33 (±0.10) in assay [3] (25 mg/kg) and 3.01 (±0.30) in assay [4].

In the case of `O=c1cc(-c2ccccc2)oc2cc(OC3OC(CO)C(O)C(O)C3O)cc(O)c12` (stereo not shown) [CG, 5-Hydroxy-2-phenyl-7-(3,4,5-trihydroxy-6-hydroxymethyl-tetrahydro-pyran-2-yloxy)-chromen-4-one], the inhibition at 25 mg/kg in assay [1] turned out to be 52%; in assay [2] (setting [5]) it was 47.7%; in assay [3] (Rattus norvegicus, 25 mg/kg), 52.5%; in assay [4], 50.2%. Also, the “Ulcer index Mean(SE)” value is on record as 21.66 in assay [1], 21.00 in assay [2] (25 mg/kg per orally), 31.66 (±4.41) in assay [3] (25 mg/kg) and 24.93 (±1.66) in assay [4]. Further, the “Acidity Total mEg” value is on record as 20.01 (±4.41) mEg in assay [3] (25 mg/kg) and 44.33 (±2.33) m Eg in assay [4]. Also, the Gastric content in assay [3] (25 mg/kg) was 5.90 (±0.49); in assay [4], 1.50 (±0.28). The pH in assay [3] (25 mg/kg) is listed as 5.90 (±0.49); in assay [4], 3.50 (±0.28).

Turning to `O=c1cc(-c2ccccc2)oc2cc(OCCCN3CCOCC3)cc(O)c12` [CHM-2, 5-Hydroxy-7-(3-morpholin-4-yl-propoxy)-2-phenyl chromen-4-one], the inhibition at 25 mg/kg in assay [1] worked out at 55.6%; in assay [2] (setting [5]) it was 35.1%; in assay [3] (Rattus norvegicus, 25 mg/kg) it was 25%; in assay [4] it was 48.5%. Further, the “Ulcer index Mean(SE)” value in assay [1] was 19.99; in assay [2] (25 mg/kg per orally), 26.42; in assay [3] (25 mg/kg) it was 40.11 (±3.65); in assay [4], 25.82 (±2.00). In addition, the “Acidity Total mEg” value is 38.28 (±2.24) mEg in assay [3] (25 mg/kg) and 41.48 (±3.20) m Eg in assay [4]. Further, the Gastric content in assay [3] (25 mg/kg) is 2.8 (±0.72); in assay [4], 1.88 (±0.62). The pH in assay [3] (25 mg/kg) is 4.00 (±0.18); in assay [4], 3.79 (±0.20).

With `O=c1cc(-c2ccccc2)oc2cc(OCCCCN3CCOCC3)cc(O)c12` [CHM-3, 5-Hydroxy-7-(4-morpholin-4-yl-butoxy)-2-phenyl chromen-4-one], the inhibition at 25 mg/kg was 51.7% in assay [1]; 52.6% in assay [2] (setting [5]); 36.2% in assay [3] (Rattus norvegicus, 25 mg/kg); 45.2% in assay [4]. Moreover, the “Ulcer index Mean(SE)” value in assay [1] was 21.77; in assay [2] (25 mg/kg per orally), 19.28; in assay [3] (25 mg/kg), 42.50 (±3.81); in assay [4], 27.46 (±3.00). Also, the “Acidity Total mEg” value in assay [3] (25 mg/kg) was 37.10 (±0.60) mEg; in assay [4], 44.10 (±2.20) m Eg. In addition, the Gastric content in assay [3] (25 mg/kg) is 3.8 (±0.30); in assay [4], 2.24 (±0.22). For the same molecule, the pH in assay [3] (25 mg/kg) is on record as 4.16 (±0.12); in assay [4], 3.41 (±0.16).

On to `CN1C(=O)CN=C(c2ccccc2)c2cc(Cl)ccc21` [Diazepam, reference compound], for which the inhibition at 1 mg/kg in assay [2] (Rattus norvegicus, 2 h) is 75.4%. In addition, the “Ulcer index Mean(SE)” value in assay [2] (1 mg/kg) came out at 10.00.

On to `COc1ccc2[nH]c([S+]([O-])Cc3ncc(C)c(OC)c3C)nc2c1` (stereo not shown) [Omeprazole, reference compound], for which 30 mg/kg produced 67.5% inhibition in assay [3] (Rattus norvegicus, 30 mg/kg). Also, in assay [3] (30 mg/kg), the “Ulcer index Mean(SE)” value is 23.33 (±2.21), the Gastric content is recorded as 3.5 (±0.68) and the pH is 4.65 (±0.19).

For the molecule sucralfate [reference compound], in assay [3] (400 mg/kg), the Inhibition % is 87.50%; the “Ulcer index Mean(SE)” value is reported as 08.33 (±2.23); the “Acidity Total mEg” value was 58.00 (±2.30) mEg; the Gastric content is 3.01 (±0.48) and 3.0 (±0.48). Also, the pH in assay [3] (400 mg/kg) was 3.00 (±0.19).
